According to US20240199601A1, “QUINONE COMPOUND AND PHARMACEUTICAL USE THEREOF” (NANJING SHUPENG LIFE SCIENCE CO., LTD., priority 2021, published 2024):

Assays:
[1] = test system: paclitaxel-induced hyperalgesia; assay: Paclitaxel chemotherapy pain model; format: in vivo, B6 mice; details: 40 mg/kg by gavage once a day for 15 days, paclitaxel 4 mg/kg i.p. x4, mice, Von Frey 0.07 g and 0.4 g
Text: A total of 30 8- to 10-week-old male B6 mice were selected and allowed to adapt to the environment for three days.
On DAY 0, mechanical pain thresholds were detected by using Von Frey fibrils, the mice with abnormal pain thresholds were abandoned, and the basic pain thresholds were basically about 0.6-1.0 g. According to the basic pain thresholds, a pain threshold of 0.07 g was used in this test, and a pain threshold of 0.4 g was used in subsequent detection. Behaviors such as foot lifting and foot licking were identified as positive responses. […] The mice were randomly divided into the following groups: (1) a model control group (PC, n=10), (2) an SP3101 group administered at a dose of 40 mg/kg (n=10) by gavage and (3) a blank control group (NC). The mice in the model control group were administrated with double distilled water by gavage, the mice in the model control group and the SP3101 group were administrated with paclitaxel (4 mg/kg) by intraperitoneal injection 0.5 hour later, and the mice in the blank control group were administrated with normal saline by intraperitoneal injection. […] The first modeling day was determined as DAY 0. […] On DAY 0, 3, 7, 9, 14, 18 and 21, the mechanical pain thresholds were detected.

[2] = test system: oxaliplatin-induced hyperalgesia; assay: Oxaliplatin chemotherapy pain model; format: in vivo, C57LB6 mice; details: 40 mg/kg by gavage, oxaliplatin 3 mg/kg i.p., mice, Von Frey
Experimental: A total of 30 10-week-old wild male C57LB6 mice were selected.
On DAY 0, the mice were allowed to adapt to the environment for 7 days first, basic mechanical pain thresholds were detected and were basically about 1-1.4 g, and a total of 30 mice were used in this test without abnormal mice.
On DAYS 1-5, the mice were randomly divided into 3 groups including a blank control group (n=10), a model control group (n=10) and an SP3101 group (40 mg/kg, n=10). The mice in the SP3101 group were administrated with an SP3101 aqueous solution by gavage, the mice in the model control group were administrated with double distilled water by gavage, and the mice in the model control group and the SP3101 group were administrated with oxaliplatin (3 mg/kg) by intraperitoneal injection 0.5 hour later. The same operations were continuously performed for 5 days. On DAY 5, the pain thresholds were detected by using Von Frey fibrils.
On DAYS 6-10, the mice were only administered with SP3101 and water by gavage.
On DAYS 11-15, the operations on DAYS 1-5 were repeated, and on DAY 11, the pain thresholds were detected by using Von Frey fibrils.
On DAYS 16-20, the mice were only observed, and on DAY 16 and DAY 20, the mechanical pain thresholds were detected.

AMPK = AMPK phosphorylation level in a variety of cells; format: cell-based; details: 100 nM
[3] = test system: MHV-A59 virus-induced lung inflammation; assay: MHV-A59 virus-induced lung inflammation of mice; format: in vivo, C57BL/B6 mice; details: 20 mg/kg/day by gavage for 5 days
Experimental: As viral pneumonia of C57BL/B6 mice can be induced by nasal dropping of an MHV-A59 virus, the ability of SP3101 to inhibit virus-induced lung inflammation of mice is studied using such model.
An MHV-A59 virus strain was purchased from Suzhou Xishan Biotechnology Co., Ltd. at a PFU/ml of 1.4×10^7.
6-week-old mice were divided into 3 groups with 8 mice in each group. After anesthesia, the mice in a blank control group were administered with normal saline through the noses, and viral pneumonia models of the other two groups were constructed as follows: 10 μL of an MHV was injected into the nose of each mouse at a PFU of 1.4×10^5 with 5 μL into the left nostril and the right nostril, respectively, and about 3-6 hours later, the mice woke up. The mice in a model treatment group were administered with an SP3101 aqueous solution by gavage at a dose of 20 mg/kg body weight/day (mg/kg/day).
After continuous administration for 5 days, the mice were anesthetized and dissected 4 hours after the last administration, and the lungs were taken out, fixed with paraformaldehyde and stored for hematoxylin-eosin (HE) section staining.

In the case of `O=C1C(=O)c2nc(O)cc(C(=O)O)c2-c2[nH]ccc21` [SP3101, 4,5-dioxo-4,5-dihydro-1H-pyrrolo[2,3-f]quinone-7-hydroxy-9-carboxylic acid], the “alleviation of paclitaxel-induced hyperalgesia” value [1] is reported as “obvious effect of alleviating the paclitaxel-induced hyperalgesia”, the “prevention of oxaliplatin-induced hyperalgesia” value [2] is reported as “obviously prevent oxaliplatin-induced hyperalgesia” and the “phosphorylation level of the AMPK” value (AMPK) is reported as “significantly up-regulate”. The “inhibition of virus-induced lung inflammation (HE sections)” value [3] was “obvious effect of inhibiting virus-induced lung inflammation”.
